Data: patent US20220008325A1, “WHITE PINE BARK EXTRACT FOR DECREASING ENDOTHELIN-1 SECRETION, STEM CELL FACTOR SYNTHESIS AND PROTEIN CARBONYLATION” (International Flavors & Fragrances Inc., priority 2018, published 2022)

System: pigmented reconstructed human epidermis (RHE)
Test: Melanin synthesis in ex vivo pigmented reconstructed human epidermis (Fontana-Masson staining)
Type: cell-based
Settings: pigmented RHE phototype IV, topical formulation (2% extract or 1% kojic acid), 3 days, 2 applications per day, vs placebo formula
Experimental: Non-pigmented reconstructed human epidermis (RHE) and pigmented RHE phototype IV were prepared by seeding human melanocytes and keratinocytes in an incubation chamber placed on the epidermal side of a dead dermis at 4×10^5 cells per cm^2, at a 1:20 melanocyte:keratinocyte ratio. After 24 hours, the incubation chamber was removed and the dead dermis was submerged for 3 days. The dead dermis was moved to the air-liquid interface for 8 days prior to treatment. After 8 days of exposure to the air-liquid interface, the pigmented RHE and non-pigmented RHE were contacted with Pinus strobus bark extract, placebo, negative control (no treatment), or positive control (kojic acid). This involved topical application of each formulation for 3 days, 2 applications per day (see FIG. 5). After 3 days, pigmented RHE was incubated for 3 days in the presence of a 1:1 mixture of fresh media and conditioned media from the non-pigmented RHE. The formulations included Heliogel™ (sodium acrylates copolymer, hydrogenated polyisobutene, phospholipids, polyglyceryl-10 stearate, sunflower seed oil; Lucas Meyer Cosmetics), Saboderm TCC (Caprylic/Capric Triglyceride; SABO, S.p.A), and Dekaben C (phenoxyethanol, methylparaben, ethylparaben, butylparaben, isobutylparaben, propylparaben; Jan Dekker BV) in the amounts listed in Table 1. Pigmentation was evaluated by Fontana-Masson staining. […]

Structure (SMILES): O=c1cc(CO)occ1O [Kojic acid]
- decrease in melanin synthesis: 8.1%
